We go through seven molecules from PMC12196251, “Synthesis of New DltA Inhibitors and Their Application as Adjuvant Antibiotics to Re-Sensitize Methicillin-Resistant Staphylococcus aureus” (Molecules, 2025).

The subject of experiment [1] is D-alanyl ester of the MRSA cell wall. As to the kind of experiment: Quantification of D-alanyl ester in the bacterial cell wall. The format is cell-based, S. aureus. The settings on record: inhibitor at 1 mM, value (spread). As for the experimental part:
(§1) All these compounds were also tested […] against MRSA clinical isolates. […] The minimum inhibitory concentrations (MICs) of imipenem (IPM) were next determined in the absence or presence of 1 mM of the different DltA inhibitors to evaluate their potential to re-sensitize MRSA to this β-lactam (Table 2). […] To clarify this hypothesis, quantification of D-alanyl ester of the MRSA cell wall was performed as previously described in the presence of inhibitors (Table 2). […] These new series represent a promising structure entry not reported yet for the inhibition of DltA and the re-sensitization of bacteria toward known antibiotics.
Ester-linked D-alanines were quantified as described previously, with the following modifications. Cultures were grown in 5 mL of BHI supplemented with DltA inhibitor to a final concentration of 0.05, 0.1, 0.25, 0.5, 0.75, or 1 mM for 16 h at 37 °C under shaking (120 rpm). Briefly, the quantification is based on the oxidation of a chromogen by H2O2 generated when free D-alanines are oxidized by a D-amino acid oxidase. Three independent experiments with duplicate samples were performed.

Experiment [2] has as its system MRSA clinical isolates. As to the kind of experiment: MIC of imipenem against MRSA in absence or presence of DltA inhibitor. The format is cell-based, S. aureus. Particulars: in presence of 1 mM of the DltA inhibitor; for MIC: Staphylococcus aureus, MRSA. How it is done: as §1
Colonies from BHI agar plates were suspended in saline solution (0.9% NaCl) and adjusted to an OD600 of 0.5. For growth kinetics determination, 96-well microplates (Starlab, Orsay, France) containing 200 μL of fresh BHI medium were inoculated with bacterial suspensions to an OD600 of 0.02 with a wide range of DltA inhibitors (from 0 to 2 mM). Plates were incubated at 37 °C with shaking (orbital amplitude of 3 mm) in a microplate reader (InfiniteM Nano, Tecan, Seoul, Republic of Korean). OD600nm was measured every 10 min for 24 h. Determination of MIC/MBC of antibiotics and bacterial survival assays were performed as previously described using BHI medium. The DltA inhibitor was diluted in pure water and added to the growth medium to a final concentration of 0, 0.1, 0.25, 0.5, 0.75, or 1 mM.

Experiment [3] concerns the target T1, recombinant DltA from E. faecalis (Enterococcus faecalis, UniProt Q830N0).
T1 construct: made in house; host or cells: E. coli
T1 sequence (Q830N0 1-506): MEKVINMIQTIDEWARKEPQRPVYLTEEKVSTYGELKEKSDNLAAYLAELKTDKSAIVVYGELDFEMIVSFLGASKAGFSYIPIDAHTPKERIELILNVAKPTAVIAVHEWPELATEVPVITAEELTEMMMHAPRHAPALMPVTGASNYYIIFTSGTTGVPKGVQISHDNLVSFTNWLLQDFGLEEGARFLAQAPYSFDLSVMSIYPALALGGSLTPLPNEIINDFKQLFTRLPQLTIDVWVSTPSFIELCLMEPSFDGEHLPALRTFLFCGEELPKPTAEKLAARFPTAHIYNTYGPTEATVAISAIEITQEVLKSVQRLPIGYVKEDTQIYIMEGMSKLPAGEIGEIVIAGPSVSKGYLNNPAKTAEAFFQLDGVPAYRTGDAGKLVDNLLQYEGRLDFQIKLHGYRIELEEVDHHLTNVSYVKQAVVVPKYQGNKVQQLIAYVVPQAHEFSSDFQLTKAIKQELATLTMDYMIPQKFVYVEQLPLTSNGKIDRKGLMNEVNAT
As to the kind of experiment: DltA enzyme inhibition, PPi release coupled-enzyme assay. The format is biochemical. As for the experimental part:
(§2) All new compounds were then evaluated in vitro for enzyme inhibition against recombinant DltA from E. faecalis or S. epidermis. Half-maximal inhibitory concentrations (IC50) were then determined by measuring the amount of PPi released at different inhibitor concentrations (Table 2). […] We noticed the DltA enzyme tolerated the presence of various modifications on the 2′-position, but the activity was inversely related to the size of the introduced group. […] Despite a good predicted binding affinity (−8.7 Kcal/mol), we hypothesize that the lower activity could be explained by the fact that the squaramide nitrogen atom might not be under its anionic form, as is the case with sulfamate 1.
(§3) The DltA-catalyzed ATP-hydrolysis reaction was monitored in vitro via PPi release (DltA +D-alanine +ATP → DltA-DAla-AMP +PPi) using a coupled-enzyme assay. The purified DltA was pretreated with DltC purified from E. coli to clear D-Ala-AMP already present in the enzyme preparation after expression in E. coli. Holo-DltC is the natural protein partner of DltA, and DltC purified from E. coli BL21 (DE3) contained 51% of this active form of DltC as determined by HPLC analysis. DltA was pretreated with DltC (ratio 1:1.2), incubated for 30 min at 37 °C and 30 min at 4 °C. Three successive washes were realized on Amicon Ultra-2 Centrifugal Filter Unit—Ultracel 30 membrane 30 kDa MWCO (Merck, Darmstadt, Germany) with elution buffer EB at 4 °C. The components of the coupled enzyme assay included 1.5 μM pre-treated DltA, 20 μM of ATP, and 14 μM of D-alanine. The half-maximal inhibitory concentration (IC50) of potential DltA inhibitors was determined by the addition of different concentrations of the synthesized molecules. PPi release was determined using the PiPer—Pyrophosphate assay kit (Invitrogen, Waltham, MA, USA) according to the recommendation of the supplier. Reactions were carried out in 96-well Chimney Style, non-binding Microplates with μClear Film Bottom (Greiner Bio-one, Frickenhausen, Germany). Plates were incubated at 37 °C for 5 h and read in a FlexStation 3 Multi-Mode plate reader (Molecular Devices, Silicon Valley, CA, USA), with λ excitation of 530 nm and λ emission of 590 nm. Experiments were conducted in sextuplicate, and the IC50 was determined by linear regression of the curve.

In experiment [4] the target is T2, recombinant DltA from S. epidermidis (Staphylococcus epidermidis, UniProt Q5HQN0).
T2 construct: made in house; host or cells: E. coli
T2 sequence (Q5HQN0 1-485): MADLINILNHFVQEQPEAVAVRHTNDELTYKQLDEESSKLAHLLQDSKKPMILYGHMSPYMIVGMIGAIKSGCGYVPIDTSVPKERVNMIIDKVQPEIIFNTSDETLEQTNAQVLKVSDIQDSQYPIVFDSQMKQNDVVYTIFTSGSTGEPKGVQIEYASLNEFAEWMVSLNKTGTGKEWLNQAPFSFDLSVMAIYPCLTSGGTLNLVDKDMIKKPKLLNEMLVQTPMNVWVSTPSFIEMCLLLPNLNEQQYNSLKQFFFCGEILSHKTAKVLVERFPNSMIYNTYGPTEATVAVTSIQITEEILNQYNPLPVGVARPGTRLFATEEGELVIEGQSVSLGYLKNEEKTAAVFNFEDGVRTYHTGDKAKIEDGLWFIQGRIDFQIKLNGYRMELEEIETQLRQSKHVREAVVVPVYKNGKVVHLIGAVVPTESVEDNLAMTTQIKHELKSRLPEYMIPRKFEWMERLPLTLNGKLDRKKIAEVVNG
Described as above. Format: biochemical. As for the experimental part:
as §2, §3

Experiment [5] deals with T1, recombinant DltA from E. faecalis. The arrangement: method as in doi:10.1002/ejoc.202300258. The settings on record: previous reported work; cited from earlier work.
Experiment [6] deals with MRSA clinical isolates. The arrangement: method as in PMID 31339997, PMID 34450626, PMID 40116514. Particulars: S. aureus (MRSA); in presence of inhibitor 1; previously reported; cited from earlier work.
A further experiment deals with DltA. The arrangement: method as in PMID 15955059. Particulars: DltA inhibitor; cited from earlier work.
[7] abbreviates: S. aureus (MRSA), read-out: MIC of IPM.
Setting [8] is: read-out: MIC of IPM, S. aureus (MRSA).

“And” between values parts separate entries of the source, which are not always exact repeats. Equal values may be shown once. Where a name gives a salt, the structure may show the parent alone. Read-outs that look alike come from different tables or passages of the source.

Broadly, the MIC is the least concentration at which growth counts as inhibited. One may read the IC50 as the midpoint of a concentration-inhibition curve. Regarding `CC(N)C(=O)NS(=O)(=O)NCC1OC(n2cnc3c(N)ncnc32)C(O)C1O` [Compound 30, (R)-2-amino-N-(N-(((2R,3S,4R,5R)-5-(6-amino-9H-purin-9-yl)-3,4-dihydroxytetrahydrofuran-2-yl)methyl)sulfamoyl)propenamide salt], the “Reduction in D-Ala Ester Residues” value in experiment [1] is 80.9% and 80.9 (18.4) %. In the experiment on MRSA clinical isolates [2] (setting [7]), the MIC was determined as 1 µg/mL. Moreover, the IC50 in experiment [3] came out at 1800 nM; in experiment [4], 2000 nM.

In the case of `C[C@@H](N)C(=O)c1cn(C[C@H]2O[C@@H](n3cnc4c(N)ncnc43)[C@H](O)[C@@H]2O)nn1` [Compound 40], the IC50 in experiment [5] was 4500 nM. For the same molecule, in the experiment with MRSA clinical isolates [2] (setting [8]), the MIC stood at 8 µg/mL.

The term Ki denotes a dissociation constant, usually derived from enzyme kinetics or from competition with a known ligand. For the molecule `C[C@@H](N)C(=O)NS(=O)(=O)OC[C@H]1O[C@@H](n2cnc3c(N)ncnc32)[C@H](O)[C@@H]1O` [Compound 1, reference compound], the “MIC of IPM” value in the experiment with MRSA clinical isolates [6] is 0.25 µg/mL. Besides, the “Reduction in D-Ala Ester Residues” value in experiment [1] is 86.7% and 86.7 (10.5) %. Also, the figures for the IC50 in experiment [3] and in experiment [4] were 2300 nM and 2400 nM, respectively. In addition, the Ki at DltA was 200 nM.

Consider `C[C@@H](N)C(=O)NS(=O)(=O)OC[C@H]1O[C@@H](n2cnc3c(N)ncnc32)[C@@H](N=[N+]=[N-])[C@@H]1O` [Compound 9, ((2R,3S,4S,5R)-5-(6-amino-9H-purin-9-yl)-4-azido-3-hydroxytetrahydrofuran-2-yl)methyl (D-alanyl)sulfamate salt], for which, in experiment [1], the “Reduction in D-Ala Ester Residues” value is 74.9% and 74.9 (9.4) %. In addition, the MIC in the experiment on MRSA clinical isolates [2] (setting [7]) came out at 8 µg/mL. In addition, the IC50 in experiment [3] turned out to be 3800 nM.

With `C[C@@H](N)C(=O)c1cn(C/C(CO)=C(\F)Cn2cnc3c(N)ncnc32)nn1` [Compound 39], the IC50 in experiment [5] was 7400 nM. Also, the “Reduction in D-Ala Ester Residues” value in experiment [1] is 0%. Besides, the MIC in the experiment with MRSA clinical isolates [2] (setting [8]) was determined as 16 µg/mL.

Take `C[C@@H](N)C(=O)NS(=O)(=O)OC[C@H]1O[C@@H](n2cnc3c(N)ncnc32)[C@H](F)[C@@H]1O` [Compound 8, ((2R,3R,4R,5R)-5-(6-amino-9H-purin-9-yl)-4-fluoro-3-hydroxytetrahydrofuran-2-yl)methyl (D-alanyl)sulfamate salt]: in experiment [1], the “Reduction in D-Ala Ester Residues” value is listed as 0%. Besides, the MIC in the experiment with MRSA clinical isolates [2] (setting [7]) worked out at 16 µg/mL. The IC50 in experiment [3] came out at 2600 nM.

In the case of `C[C@@H](N)C(=O)c1cn(C[C@H]2O[C@@H](n3cnc4c(N)ncnc43)[C@H](F)[C@@H]2O)nn1` [Compound 50, (R)-2-amino-1-(1-(((2R,3R,4R,5R)-5-(6-amino-9H-purin-9-yl)-4-fluoro-3-hydroxytetrahydrofuran-2-yl)methyl)-1H-1,2,3-triazol-4-yl)propan-1-one salt], in experiment [1], the “Reduction in D-Ala Ester Residues” value is on record as 8.6 (1.1) %. Besides, the “MIC of IPM” value in the experiment on MRSA clinical isolates [2] (S. aureus (MRSA)) was 32 µg/mL. The MIC in the experiment on MRSA clinical isolates [2] (setting [8]) is 16 to 64 µg/mL. Besides, the IC50 in experiment [3] came to 14700 nM.
